Source: the supplement of paper PMC10307832

Columns and labels:
Assay in all cases: relative viability (nuclei count vs DMSO), 5 days (fraction); higher = more cells survive
AGI-6780 + Bortezomib = compound: O=C(Nc1cccc(C(F)(F)F)c1)Nc1cc(S(=O)(=O)NC2CC2)ccc1-c1ccsc1 [AGI-6780] + CC(C)C[C@H](NC(=O)[C@H](Cc1ccccc1)NC(=O)c1cnccn1)B(O)O [Bortezomib] (partner 0.002 µM)
Procedure, shortened: (§1)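 Cells from lung cancer lines were seeded into 1536-well plates and, one day later, dosed by pin tool. Treatments were either a single drug or a fixed dose of an anchor drug with five library-drug doses (not always all listed) in √10 steps. After 5 days, nuclei were stained in a one-step fixation (final 0.05% Triton X-100, 1% formaldehyde, 1 ug/ml Hoechst) and counted on 4× images, and relative viability is the treated-to-vehicle nuclei ratio, as the median of duplicate plates.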

AGI-6780 + AZD7762 = compound: O=C(Nc1cccc(C(F)(F)F)c1)Nc1cc(S(=O)(=O)NC2CC2)ccc1-c1ccsc1 [AGI-6780] + NC(=O)Nc1cc(-c2cccc(F)c2)sc1C(=O)N[C@H]1CCCNC1 [AZD7762] (partner 0.2 µM)
Procedure, shortened: as §1

AGI-6780 + Lapatinib = compound: O=C(Nc1cccc(C(F)(F)F)c1)Nc1cc(S(=O)(=O)NC2CC2)ccc1-c1ccsc1 [AGI-6780] + CS(=O)(=O)CCNCc1ccc(-c2ccc3ncnc(Nc4ccc(OCc5cccc(F)c5)c(Cl)c4)c3c2)o1 [Lapatinib] (partner 2 µM)
Procedure, shortened: as §1

AGI-6780 + Decitabine = compound: O=C(Nc1cccc(C(F)(F)F)c1)Nc1cc(S(=O)(=O)NC2CC2)ccc1-c1ccsc1 [AGI-6780] + Nc1ncn([C@H]2C[C@H](O)[C@@H](CO)O2)c(=O)n1 [Decitabine] (partner 2 µM)
Procedure, shortened: as §1

Row | Cell Line | relative viability (AGI-6780 + Bortezomib; first compound 0.08 µM) | relative viability (AGI-6780 + Bortezomib; first compound 0.253 µM) | relative viability (AGI-6780 + Bortezomib; first compound 0.8 µM) | relative viability (AGI-6780 + Bortezomib; first compound 2.53 µM) | relative viability (AGI-6780 + Bortezomib; first compound 8 µM) | relative viability (AGI-6780 + AZD7762; first compound 0.08 µM) | relative viability (AGI-6780 + AZD7762; first compound 0.253 µM) | relative viability (AGI-6780 + AZD7762; first compound 0.8 µM) | relative viability (AGI-6780 + AZD7762; first compound 2.53 µM) | relative viability (AGI-6780 + AZD7762; first compound 8 µM) | relative viability (AGI-6780 + Lapatinib; first compound 0.08 µM) | relative viability (AGI-6780 + Lapatinib; first compound 0.253 µM) | relative viability (AGI-6780 + Lapatinib; first compound 0.8 µM) | relative viability (AGI-6780 + Lapatinib; first compound 2.53 µM) | relative viability (AGI-6780 + Lapatinib; first compound 8 µM) | relative viability (AGI-6780 + Decitabine; first compound 0.08 µM) | relative viability (AGI-6780 + Decitabine; first compound 0.253 µM) | relative viability (AGI-6780 + Decitabine; first compound 0.8 µM) | relative viability (AGI-6780 + Decitabine; first compound 2.53 µM) | relative viability (AGI-6780 + Decitabine; first compound 8 µM)
1 | NCI-H1437 | 0.562 | 0.569 | 0.703 | 0.563 | 0.747 | 1.11 | 1.11 | 1.28 | 1.16 | 1.17 | 0.825 | 0.834 | 0.863 | 0.838 | 0.941 | 0.572 | 0.587 | 0.594 | 0.583 | 0.576
2 | NCI-H1651 | 0.831 | 0.988 | 1 | 0.893 | 0.957 | 0.42 | 0.495 | 0.463 | 0.518 | 0.434 | 0.83 | 0.911 | 0.959 | 0.805 | 1.04 | 0.557 | 0.627 | 0.619 | 0.535 | 0.653
3 | NCI-H1666 | 0.819 | 0.838 | 0.782 |  | 0.857 | 0.809 | 0.977 | 0.842 | 0.926 | 0.898 | 0.784 | 0.597 | 0.578 |  | 0.73 | 0.665 | 0.78 | 0.733 | 0.663 | 0.72
4 | NCI-H1734 | 1.08 | 0.968 | 1.03 |  | 0.935 | 0.634 | 0.589 | 0.618 | 0.451 | 0.606 | 0.961 | 1.09 | 1.07 |  | 1.07 | 0.506 | 0.566 | 0.528 | 0.372 | 0.48
5 | NCI-H1755 | 1.01 | 0.98 | 0.967 | 0.83 | 1.01 | 0.478 | 0.417 | 0.485 | 0.419 | 0.435 | 1.03 | 0.959 | 0.984 | 0.936 | 1.04 | 0.718 | 0.758 | 0.691 | 0.604 | 0.689
6 | NCI-H1792 | 0.834 | 0.917 | 1.01 | 0.867 | 0.862 | 1.05 | 0.596 | 0.769 |  | 0.752 | 0.805 | 0.893 | 1.14 | 0.883 | 0.914 | 0.665 | 0.437 | 0.536 |  | 0.49
7 | NCI-H1915 | 1.02 | 1 | 0.912 | 0.955 | 0.972 | 0.715 | 0.713 | 0.729 | 0.637 | 0.698 | 0.96 | 0.989 | 0.988 | 0.982 | 0.977 | 0.276 | 0.267 | 0.283 | 0.255 | 0.26
8 | NCI-H1975 | 0.337 | 0.303 | 0.34 | 0.331 | 0.351 | 0.662 | 0.848 | 0.821 | 0.653 | 0.711 | 0.861 | 1.01 | 0.801 | 0.875 | 0.951 | 0.38 | 0.427 | 0.38 | 0.377 | 0.382
9 | NCI-H1993 | 1.09 | 1.13 | 1.25 | 0.764 | 1.12 | 0.681 | 1.05 | 1.01 |  | 0.928 | 0.91 | 0.86 | 0.804 | 0.749 | 0.933 | 0.593 | 0.57 | 0.595 |  | 0.688
10 | NCI-H2085 | 1.04 | 1.09 | 1.02 | 1.08 | 1.13 | 1.07 | 1 | 0.995 | 1.06 | 1 | 0.787 | 0.771 | 0.843 | 0.724 | 0.78 | 0.574 | 0.534 | 0.523 | 0.474 | 0.537
11 | NCI-H2087 | 0.824 | 0.958 | 0.77 | 0.997 | 0.879 | 1.42 | 1.43 | 1.34 | 1.64 | 1.47 | 1.04 | 1.05 | 0.926 | 0.976 | 0.98 | 0.329 | 0.272 | 0.326 | 0.243 | 0.235
12 | NCI-H2126 | 1.17 | 1.07 | 1.11 | 1.09 | 1.09 | 1.03 | 1.08 | 0.989 | 0.97 | 1.08 | 0.782 | 0.798 | 0.73 | 0.586 | 0.757 | 0.577 | 0.615 | 0.562 | 0.501 | 0.582
13 | NCI-H2347 | 0.557 | 0.947 | 0.858 | 1.23 | 1.19 | 0.766 | 0.78 | 0.538 | 0.867 | 0.929 | 0.904 | 0.874 | 0.688 | 0.879 | 0.93 | 0.706 | 0.62 | 0.553 | 0.643 | 0.65
14 | NCI-H2405 | 0.972 | 0.978 | 0.925 | 0.798 | 1.01 |  | 0.725 | 0.603 | 0.752 | 0.658 | 1.05 | 1.08 | 0.938 |  | 1.1 |  | 0.781 | 0.662 | 0.626 | 0.66
15 | NCI-H3122 | 1.11 | 1 | 1.05 | 1.05 | 0.999 | 0.983 | 1.08 | 1 | 0.91 | 1.05 | 1.02 | 0.987 | 1.09 | 1.02 | 1.08 | 0.447 | 0.411 | 0.42 | 0.331 | 0.498
16 | PC-3 [JPC-3] | 0.816 | 0.796 | 0.753 | 0.856 | 0.782 |  | 0.758 | 0.984 | 0.877 | 0.729 | 0.467 | 0.513 | 0.451 | 0.416 | 0.48 |  | 0.797 | 0.868 | 0.802 | 0.775
17 | PC-14 | 0.899 | 0.71 | 0.917 | 0.793 | 0.934 | 0.355 | 0.33 | 0.453 | 0.455 | 0.397 | 0.312 | 0.348 | 0.312 | 0.314 | 0.291 | 0.22 | 0.226 | 0.295 | 0.217 | 0.198
